{
  "source": "patent US20090298889A1",
  "about": "“PHARMACEUTICAL COMPOSITIONS CONTAINING 2-PYRIDONE DERIVATIVES AS EFFECTIVE COMPONENTS” (SATO PHARMACEUTICAL CO., LTD., priority 2005, published 2009)",
  "key": {"neutrophils": {"tested_on": "neutrophils", "experiment": "Test for examining cell adhesion-inhibitory effect (TNF-α-stimulated neutrophil adhesion to keyhole limpet hemocyanin-coated plate, Alamar blue fluorescence)", "assay_type": "cell-based, human (healthy person)", "conditions": "0.5 h, human neutrophils stimulated with TNF-α 10 ng/mL, 37° C. 30 minutes, Probit technique, read-out: IC50 (50%-inhibitory concentration of cell adhesion)", "method": "To a 96-well culture plate coated, in advance, with keyhole limpet hemocyanin, there was added 0.05 mL each of a solution of a candidate test compound in dimethylsulfoxide diluted to a final dimethylsulfoxide concentration of 1% with DMEM. A blood sample was collected from a healthy person through the median vein of elbow and the neutrophils were fractionated or isolated through the use of Mono-Poly Separation Liquid and the centrifugation. The fractionated neutrophils were suspended in DMEM to a concentration of 1×10^6 cells/mL and 0.1 mL of the resulting neutrophil-containing suspension was added to each well of the culture plate. Moreover, 40 ng/mL of tumor-necrosis factor (TNF)-α was diluted with DMEM to a final concentration of 10 ng/mL and 0.05 mL of the resulting diluted solution was added to each well of the culture plate. After the culture plate was allowed to stand at 37° C. for 30 minutes in a CO2-incubator, the plate was washed three times (thrice) with 0.2 mL of phosphate-buffered physiological saline (PBS(−), available from GIBCO Corporation). In addition, to each well, there was added 0.1 mL of a 10% solution of Alamar blue in DMEM, the culture plate was allowed to stand at 37° C. for 3 hours in a CO2-incubator, and then the intensity of fluorescent rays emitted from the adhered neutrophil cells was determined (Ex: 544 nm; Em: 590 nm). In this respect, the sample group free of any stimulation was defined to be the non-adhesion control group and the sample group stimulated with TNF-α was referred to as the adhesion control group to thus determine or calculate the cell adhesion-inhibitory rate of the compound of the present invention at each concentration, and the 50%-inhibitory concentration (IC50) was calculated from the cell adhesion-inhibitory rates thus determined according to the Probit technique. The same test procedures used above were repeated except for using different kinds of candidate compounds."}, "[1]": {"tested_on": "neutrophil infiltration (MPO activity)", "experiment": "Effect on zymosan-induced neutrophil infiltration (MPO activity of peritoneal fluid)", "assay_type": "in vivo, ICR mice", "conditions": "30 mg/kg body weight orally, FIG. 1; for MPO activity with respect to the vehicle: 1 hour before intra-peritoneal zymosan, peritoneal fluid after 3 hours", "method": "Each candidate compound was administered to 6-week-old male ICR mice, which had been fasted from the day before the initiation of this test. Each candidate compound was suspended in a 3% dimethylsulfoxide/carboxymethyl cellulose sodium solution and the resulting suspension was administered to the mice at a dose of 30 mg/kg body weight/10 mL. After the elapse of one hour, 1 mL of a 0.01% solution of zymosan in physiological saline was intra-peritoneally administered. After 3 hours, 5 mL of physiological saline was intra-peritoneally administered and the test animals were lightly massaged for 30 seconds. The abdominal wall of the test animals were slightly incised to thus collect the peritoneal fluid using a Pasteur pipette. Thereafter, the fluid thus recovered was centrifuged (at 20,000 g, for 20 minutes, at 4° C.), the resulting pellets were washed with a 50 mM sodium phosphate buffer (pH 6.0) and then again centrifuged. To the pellets thus recovered, there was added 0.5% hexadecyl trimethyl ammonium bromide (HTAB) and then centrifuged to thus give a supernatant, which was subsequently used as an enzyme source. To 15 μL of the enzyme source, there were added 200 μL of a 1.154 mM o-di-anisidine and 50 μL of a 0.005% hydrogen peroxide solution and then the optical densities at 450 nm (OD450) were determined to thus calculate the difference: (OD450 observed after 90 seconds from the initiation of the reaction)−(OD450 observed after 30 seconds from the initiation of the reaction), which was herein defined to be MPO activity. In this connection, the MPO activity was calculated, while defining the activity required for increasing the OD450 value by 0.001 as one unit. The MPO activity is herein defined to be the activity of the enzyme present in the neutrophils and accordingly, the reduction in the MPO activity means the inhibition of the neutrophil-infiltration. The results thus obtained are plotted on FIG. 1. […]"}, "[2]": {"experiment": "Toxicity test by administration of one time (single dose)", "conditions": "mouse, in vivo", "text": "Test Animals Used: ICR Male Mice (5-Week-Old):\nThey were purchased and then preliminarily kept over one week, prior to the practical use thereof in this test.\nEach test group comprised 5 animals.\nInspected Items: Appearance (such as death, weakening); Physical Conditions (such as the presence of lateral turning); Consciousness (such as excitation, lethargy (coma)); Behaviors (such as convulsions); Properties of fecal matters; and Foreign matters present in the urine."}},
  "data": [
    {"smiles": "CC(=O)c1cn(-c2ccccc2)c(=O)c(Sc2ccc(F)cc2)c1C", "note": "[Compound 1, 5-acetyl-3-(4-fluorophenylthio)-4-methyl-1-phenyl-1H-pyridin-2-one]", "values": [
      {"measurement": "IC50", "setting": "neutrophils", "value": 0.4, "unit": "µM"},
      {"measurement": "MPO activity with respect to the vehicle", "setting": "[1]", "value": "decreases in the MPO activity"},
      {"measurement": "Result of single dose toxicity test (death, severe side-effect)", "setting": "[2]", "value": "All of the test animals were not died"}
    ]},
    {"smiles": "CC(=O)c1c[nH]c(=O)c(Sc2ccc(F)cc2)c1C", "note": "[Compound 42, 5-acetyl-3-(4-fluoro-phenylthio)-4-methyl-1H-pyridin-2-one]", "values": [
      {"measurement": "melting point", "value": "236 to 238", "unit": "°C"}
    ]},
    {"smiles": "CC(=O)c1c(C)c(Sc2ccc(F)cc2)c(=O)n(-c2ccccc2)c1C", "note": "[Compound 62, 5-acetyl-3-(4-fluoro-phenylthio)-4,6-dimethyl-1-phenyl-1H-pyridin-2-one]", "values": [
      {"measurement": "IC50", "setting": "neutrophils", "value": 0.569, "unit": "µM"},
      {"measurement": "MPO activity with respect to the vehicle", "setting": "[1]", "value": "decreases in the MPO activity"},
      {"measurement": "neutrophil infiltration-inhibitory effect", "setting": "[1]; zymosan-induced model", "value": "excellent neutrophil infiltration-inhibitory effects"}
    ]},
    {"smiles": "CC(=O)c1cn(-c2ccccc2)c(=O)c(Br)c1C", "note": "[Compound 70, 5-acetyl-3-bromo-4-methyl-1-phenyl-1H-pyridin-2-one]", "values": [
      {"measurement": "melting point", "value": "166.5 to 167.4", "unit": "°C"}
    ]},
    {"smiles": "CC(=O)c1cn(-c2ccccc2)c(=O)c(C#N)c1C", "note": "[Compound 71, 5-acetyl-4-methyl-2-oxo-1-phenyl-1,2-di-hydro-pyridine-3-carbonitrile]", "values": [
      {"measurement": "melting point", "value": "215.4 to 216.8", "unit": "°C"}
    ]},
    {"smiles": "CC(=O)c1cn(-c2ccccc2)c(=O)c(Sc2ncccn2)c1C", "note": "[Compound 74, 5-Acetyl-4-methyl-1-phenyl-3-(pyrimidin-2-yl-thio)-1H-pyridin-2-one]", "values": [
      {"measurement": "melting point", "value": "184.5 to 185.3", "unit": "°C"}
    ]},
    {"smiles": "Cc1c(C(C)O)cn(-c2ccccc2)c(=O)c1Sc1ccc(F)cc1", "note": "(stereo not drawn) [Compound 77, 3-(4-Fluoro-phenylthio)-5-(1-hydroxyethyl)-4-methyl-1-phenyl-1H-pyridin-2-one]", "values": [
      {"measurement": "IC50", "setting": "neutrophils", "value": 0.98, "unit": "µM"}
    ]},
    {"smiles": "CCc1cn(-c2ccccc2)c(=O)c(Sc2ccc(F)cc2)c1C", "note": "[Compound 80, 5-Ethyl-3-(4-fluoro-phenylthio)-4-methyl-1-phenyl-1H-pyridin-2-one]", "values": [
      {"measurement": "melting point", "value": "116.8 to 118.7", "unit": "°C"}
    ]}
  ]
}
